Measured values published in publication PMC8398766, “Do Small Molecules Activate the TrkB Receptor in the Same Manner as BDNF? Limitations of Published TrkB Low Molecular Agonists and Screening for Novel TrkB Orthosteric Agonists” (Pharmaceuticals, 2021).

Tests used:
Experiment in all cases: BioPrint Profile Panel
Format in all cases: binding
[1] = target: T1, RARα (Homo sapiens, UniProt P10276); settings: Agonist, Receptor, read-out: % of specific inhibition
T1 construct: purchased Eurofins Discovery (Cerep) BioPrint Profile Panel
Text: (§1) The BioPrint® Profile Panel service offered by Eurofins Discovery (Poitiers, France) was chosen to perform selectivity analysis.

[2] = target: T2, α1A (Homo sapiens, UniProt P35348); settings: Antagonist, Receptor, read-out: % of specific inhibition
T2 construct: purchased Eurofins Discovery (Cerep) BioPrint Profile Panel
Text: as §1

[3] = target: T3, MC3 (Homo sapiens, UniProt P41968); settings: Agonist, Receptor, read-out: % of specific inhibition
T3 construct: purchased Eurofins Discovery (Cerep) BioPrint Profile Panel
T3 sequence (P41968 whole entry): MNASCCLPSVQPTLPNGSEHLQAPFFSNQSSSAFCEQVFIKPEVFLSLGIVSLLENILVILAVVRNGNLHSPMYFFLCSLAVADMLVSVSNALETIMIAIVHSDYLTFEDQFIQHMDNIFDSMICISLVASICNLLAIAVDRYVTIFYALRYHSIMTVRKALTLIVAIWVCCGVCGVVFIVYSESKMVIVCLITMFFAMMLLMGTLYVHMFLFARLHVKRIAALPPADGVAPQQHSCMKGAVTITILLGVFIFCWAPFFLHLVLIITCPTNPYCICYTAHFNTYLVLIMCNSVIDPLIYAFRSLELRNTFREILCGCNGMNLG
Text: as §1

[4] = target: T4, 5-HT2C (Homo sapiens, UniProt P28335); settings: Agonist, Receptor, read-out: % of specific inhibition
T4 construct: purchased Eurofins Discovery (Cerep) BioPrint Profile Panel
Text: as §1

[5] = target: T5, dopamine transporter (Homo sapiens, UniProt Q01959); settings: Antagonist, read-out: % of specific inhibition
T5 construct: purchased Eurofins Discovery (Cerep) BioPrint Profile Panel
T5 sequence (Q01959 whole entry): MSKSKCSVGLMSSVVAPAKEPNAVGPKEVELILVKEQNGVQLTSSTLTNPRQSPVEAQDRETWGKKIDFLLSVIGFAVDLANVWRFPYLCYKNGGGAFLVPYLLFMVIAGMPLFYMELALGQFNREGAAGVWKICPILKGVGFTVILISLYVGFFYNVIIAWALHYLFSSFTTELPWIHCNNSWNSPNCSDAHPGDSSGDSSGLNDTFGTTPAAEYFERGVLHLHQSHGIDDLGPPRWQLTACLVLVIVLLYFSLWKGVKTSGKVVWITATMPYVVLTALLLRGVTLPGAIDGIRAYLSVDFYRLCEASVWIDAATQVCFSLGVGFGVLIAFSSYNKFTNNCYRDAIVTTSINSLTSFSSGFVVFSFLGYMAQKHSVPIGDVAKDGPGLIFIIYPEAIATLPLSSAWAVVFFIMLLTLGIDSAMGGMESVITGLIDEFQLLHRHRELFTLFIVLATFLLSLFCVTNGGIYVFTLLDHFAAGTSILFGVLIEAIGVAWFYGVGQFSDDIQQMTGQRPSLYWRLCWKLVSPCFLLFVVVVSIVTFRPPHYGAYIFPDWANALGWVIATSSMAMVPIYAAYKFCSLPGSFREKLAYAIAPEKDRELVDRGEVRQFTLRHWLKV
Text: as §1

[6] = target: T6, 5-HT1D (Rattus norvegicus, UniProt P28565); settings: Agonist, Receptor, read-out: % of specific inhibition
T6 construct: purchased Eurofins Discovery (Cerep) BioPrint Profile Panel
Text: as §1

[7] = target: T7, MAO-A (Rattus norvegicus, UniProt P21396); settings: Antagonist, Non-Kinase Enzyme, read-out: % of specific inhibition
T7 construct: purchased Eurofins Discovery (Cerep) BioPrint Profile Panel
Text: as §1

[8] = target: T8, Estrogen Erα (Homo sapiens, UniProt P03372); settings: Agonist, Receptor, read-out: % of specific inhibition
T8 construct: purchased Eurofins Discovery (Cerep) BioPrint Profile Panel
Text: as §1

[9] = target: T9, ẟ(DOP) (Homo sapiens, UniProt P41143); settings: Agonist, Receptor, read-out: % of specific inhibition
T9 construct: purchased Eurofins Discovery (Cerep) BioPrint Profile Panel
Text: as §1

[10] = target: T10, 5-HT7 (Homo sapiens, UniProt P34969); settings: Agonist, Receptor, read-out: % of specific inhibition
T10 construct: purchased Eurofins Discovery (Cerep) BioPrint Profile Panel
Text: as §1

[11] = target: T11, 5-HT1A (Homo sapiens, UniProt P08908); settings: Agonist, Receptor, read-out: % of specific inhibition
T11 construct: purchased Eurofins Discovery (Cerep) BioPrint Profile Panel
T11 sequence (P08908 whole entry): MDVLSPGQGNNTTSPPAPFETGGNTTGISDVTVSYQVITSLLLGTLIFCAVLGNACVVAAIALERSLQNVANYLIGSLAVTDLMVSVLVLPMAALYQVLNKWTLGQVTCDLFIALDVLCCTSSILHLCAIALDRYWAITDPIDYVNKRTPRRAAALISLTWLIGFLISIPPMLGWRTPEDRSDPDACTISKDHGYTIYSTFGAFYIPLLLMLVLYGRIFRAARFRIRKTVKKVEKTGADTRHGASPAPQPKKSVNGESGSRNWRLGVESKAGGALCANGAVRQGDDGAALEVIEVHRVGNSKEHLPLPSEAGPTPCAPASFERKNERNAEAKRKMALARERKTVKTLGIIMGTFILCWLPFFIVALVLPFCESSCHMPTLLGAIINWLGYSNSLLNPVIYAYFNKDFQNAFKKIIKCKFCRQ
Text: as §1

[12] = system: glycine; settings: 10 μM; Antagonist; Ion Channel
Text: as §1

[13] = target: T12, MT1 (ML1A) (Homo sapiens, UniProt P48039); settings: Agonist, Receptor, read-out: % of specific inhibition
T12 construct: purchased Eurofins Discovery (Cerep) BioPrint Profile Panel
Text: as §1

[14] = target: T13, EP2 (Homo sapiens, UniProt P43116); settings: Agonist, Receptor, read-out: % of specific inhibition
T13 construct: purchased Eurofins Discovery (Cerep) BioPrint Profile Panel
T13 sequence (P43116 whole entry): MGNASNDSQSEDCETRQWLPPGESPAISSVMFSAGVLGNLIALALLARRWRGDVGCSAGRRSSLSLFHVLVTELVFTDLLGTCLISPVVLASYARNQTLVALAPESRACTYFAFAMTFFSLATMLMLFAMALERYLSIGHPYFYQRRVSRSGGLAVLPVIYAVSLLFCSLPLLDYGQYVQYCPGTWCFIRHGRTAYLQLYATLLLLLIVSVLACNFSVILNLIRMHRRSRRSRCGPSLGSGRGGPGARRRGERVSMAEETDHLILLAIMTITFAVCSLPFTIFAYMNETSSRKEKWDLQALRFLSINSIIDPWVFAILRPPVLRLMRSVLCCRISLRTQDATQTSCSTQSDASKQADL
Text: as §1

[15] = target: T14, V2 (Homo sapiens, UniProt P30518); settings: Agonist, Receptor, read-out: % of specific inhibition
T14 construct: purchased Eurofins Discovery (Cerep) BioPrint Profile Panel
Text: as §1

[16] = system: AMPA; settings: 10 μM; Agonist; Ion Channel
Text: as §1

[17] = target: T15, 5-HT transporter (Homo sapiens, UniProt P31645); settings: Antagonist, read-out: % of specific inhibition
T15 construct: purchased Eurofins Discovery (Cerep) BioPrint Profile Panel
Text: as §1

[18] = target: T16, M1 (Homo sapiens, UniProt P11229); settings: Antagonist, Receptor, read-out: % of specific inhibition
T16 construct: purchased Eurofins Discovery (Cerep) BioPrint Profile Panel
Text: as §1

[19] = target: T17, sst1 (Homo sapiens, UniProt P30872); settings: Agonist, Receptor, read-out: % of specific inhibition
T17 construct: purchased Eurofins Discovery (Cerep) BioPrint Profile Panel
Text: as §1

[20] = system: kappa; settings: 10 μM; Agonist; Receptor
Text: as §1

[21] = target: T18, 5-HT2B (Homo sapiens, UniProt P41595); settings: Agonist, Receptor
T18 construct: purchased Eurofins Discovery (Cerep) BioPrint Profile Panel
T18 sequence (P41595 whole entry): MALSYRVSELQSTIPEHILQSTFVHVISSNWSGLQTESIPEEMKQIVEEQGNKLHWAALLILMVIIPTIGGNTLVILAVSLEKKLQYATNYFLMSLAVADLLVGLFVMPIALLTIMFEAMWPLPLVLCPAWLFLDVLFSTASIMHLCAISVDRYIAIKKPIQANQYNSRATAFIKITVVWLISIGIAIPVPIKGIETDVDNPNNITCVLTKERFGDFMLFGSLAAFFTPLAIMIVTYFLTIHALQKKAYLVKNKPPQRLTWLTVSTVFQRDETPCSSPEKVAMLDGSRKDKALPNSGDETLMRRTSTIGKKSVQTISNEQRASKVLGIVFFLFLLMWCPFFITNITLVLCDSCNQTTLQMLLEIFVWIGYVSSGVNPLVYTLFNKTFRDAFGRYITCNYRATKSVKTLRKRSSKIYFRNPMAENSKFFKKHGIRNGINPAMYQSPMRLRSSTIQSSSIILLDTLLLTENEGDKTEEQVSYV
Text: as §1

[22] = target: T19, ETB (Homo sapiens, UniProt P24530); settings: Agonist, Receptor, read-out: % of specific inhibition
T19 construct: purchased Eurofins Discovery (Cerep) BioPrint Profile Panel
Text: as §1

[23] = system: kainate; settings: 10 μM; Agonist; Ion Channel
Text: as §1

[24] = target: T20, CysLT1 (LTD4) (Homo sapiens, UniProt Q9Y271); settings: Agonist, Receptor, read-out: % of specific inhibition
T20 construct: purchased Eurofins Discovery (Cerep) BioPrint Profile Panel
Text: as §1

[25] = target: T21, 5-HT3 (Homo sapiens, UniProt P46098); settings: Antagonist, Ion Channel, read-out: % of specific inhibition
T21 construct: purchased Eurofins Discovery (Cerep) BioPrint Profile Panel
Text: as §1

[26] = target: T22, α2A (Homo sapiens, UniProt P08913); settings: Antagonist, Receptor, read-out: % of specific inhibition
T22 construct: purchased Eurofins Discovery (Cerep) BioPrint Profile Panel
Text: as §1

[27] = target: T23, IP (PGI2) (Homo sapiens, UniProt P43119); settings: Agonist, Receptor, read-out: % of specific inhibition
T23 construct: purchased Eurofins Discovery (Cerep) BioPrint Profile Panel
Text: as §1

[28] = target: T24, H4 (Homo sapiens, UniProt Q9H3N8); settings: Agonist, Receptor, read-out: % of specific inhibition
T24 construct: purchased Eurofins Discovery (Cerep) BioPrint Profile Panel
Text: as §1

[29] = target: T25, GR (Homo sapiens, UniProt P04150); settings: Agonist, Receptor, read-out: % of specific inhibition
T25 construct: purchased Eurofins Discovery (Cerep) BioPrint Profile Panel
Text: as §1

[30] = target: T26, β1 (Homo sapiens, UniProt P08588); settings: Agonist, Receptor, read-out: % of specific inhibition
T26 construct: purchased Eurofins Discovery (Cerep) BioPrint Profile Panel
T26 sequence (P08588 whole entry): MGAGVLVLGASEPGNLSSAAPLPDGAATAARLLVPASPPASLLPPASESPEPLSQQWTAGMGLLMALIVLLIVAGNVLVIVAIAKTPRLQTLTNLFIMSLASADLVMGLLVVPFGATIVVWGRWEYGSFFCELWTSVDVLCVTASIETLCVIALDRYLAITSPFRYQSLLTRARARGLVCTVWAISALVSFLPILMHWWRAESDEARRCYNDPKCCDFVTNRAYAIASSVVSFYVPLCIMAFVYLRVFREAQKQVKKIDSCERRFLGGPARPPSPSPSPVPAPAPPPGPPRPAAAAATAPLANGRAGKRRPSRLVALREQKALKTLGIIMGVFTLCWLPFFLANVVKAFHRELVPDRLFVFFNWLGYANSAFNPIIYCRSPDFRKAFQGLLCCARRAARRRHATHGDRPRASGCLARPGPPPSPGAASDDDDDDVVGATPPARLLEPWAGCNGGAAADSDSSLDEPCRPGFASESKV
Text: as §1

[31] = target: T27, H2 (Homo sapiens, UniProt P25021); settings: Antagonist, Receptor, read-out: % of specific inhibition
T27 construct: purchased Eurofins Discovery (Cerep) BioPrint Profile Panel
T27 sequence (P25021 whole entry): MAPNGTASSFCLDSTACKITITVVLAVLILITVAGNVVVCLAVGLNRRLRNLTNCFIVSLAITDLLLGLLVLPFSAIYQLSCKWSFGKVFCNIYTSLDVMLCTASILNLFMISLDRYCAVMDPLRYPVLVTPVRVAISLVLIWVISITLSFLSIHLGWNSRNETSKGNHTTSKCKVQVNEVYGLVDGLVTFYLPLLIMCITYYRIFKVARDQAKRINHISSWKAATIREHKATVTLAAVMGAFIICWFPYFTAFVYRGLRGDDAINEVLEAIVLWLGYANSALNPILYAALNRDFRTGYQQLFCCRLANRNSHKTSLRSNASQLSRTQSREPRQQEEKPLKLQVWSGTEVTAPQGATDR
Text: as §1

[32] = target: T28, α2B (Homo sapiens, UniProt P18089); settings: Antagonist, Receptor, read-out: % of specific inhibition
T28 construct: purchased Eurofins Discovery (Cerep) BioPrint Profile Panel
Text: as §1

[33] = target: T29, MC1 (Mus musculus, UniProt Q01727); settings: Agonist, Receptor, read-out: % of specific inhibition
T29 construct: purchased Eurofins Discovery (Cerep) BioPrint Profile Panel
T29 sequence (Q01727 whole entry): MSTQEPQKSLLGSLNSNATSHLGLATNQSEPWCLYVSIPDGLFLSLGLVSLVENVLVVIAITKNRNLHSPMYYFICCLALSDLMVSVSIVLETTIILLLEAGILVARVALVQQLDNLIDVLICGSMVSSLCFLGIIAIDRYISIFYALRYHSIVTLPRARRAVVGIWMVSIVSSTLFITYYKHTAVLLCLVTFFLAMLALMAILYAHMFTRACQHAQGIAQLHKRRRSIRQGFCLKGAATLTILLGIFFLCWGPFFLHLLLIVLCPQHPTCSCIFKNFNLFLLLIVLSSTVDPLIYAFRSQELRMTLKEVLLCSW
Text: as §1

[34] = target: T30, MCH1 (Homo sapiens, UniProt Q99705); settings: Agonist, Receptor, read-out: % of specific inhibition
T30 construct: purchased Eurofins Discovery (Cerep) BioPrint Profile Panel
Text: as §1

[35] = target: T31, M2 (Homo sapiens, UniProt P08172); settings: Antagonist, Receptor, read-out: % of specific inhibition
T31 construct: purchased Eurofins Discovery (Cerep) BioPrint Profile Panel
Text: as §1

[36] = target: T32, CB1 (Homo sapiens, UniProt P21554); settings: Agonist, Receptor, read-out: % of specific inhibition
T32 construct: purchased Eurofins Discovery (Cerep) BioPrint Profile Panel
T32 sequence (P21554 whole entry): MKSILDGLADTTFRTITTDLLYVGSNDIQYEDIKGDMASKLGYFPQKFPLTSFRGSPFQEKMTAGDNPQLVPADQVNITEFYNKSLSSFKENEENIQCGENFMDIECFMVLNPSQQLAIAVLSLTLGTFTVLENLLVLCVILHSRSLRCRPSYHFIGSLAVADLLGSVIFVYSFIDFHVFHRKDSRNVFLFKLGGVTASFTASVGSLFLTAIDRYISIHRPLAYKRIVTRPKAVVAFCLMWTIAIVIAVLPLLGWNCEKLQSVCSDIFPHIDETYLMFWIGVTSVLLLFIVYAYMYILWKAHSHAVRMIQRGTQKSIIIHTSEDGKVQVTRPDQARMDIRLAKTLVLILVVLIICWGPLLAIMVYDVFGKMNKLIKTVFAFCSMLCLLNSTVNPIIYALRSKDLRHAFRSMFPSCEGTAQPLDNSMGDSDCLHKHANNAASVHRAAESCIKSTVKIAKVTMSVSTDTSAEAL
Text: as §1

[37] = target: T33, PPARγ (Homo sapiens, UniProt P37231); settings: Agonist, Receptor, read-out: % of specific inhibition
T33 construct: purchased Eurofins Discovery (Cerep) BioPrint Profile Panel
Text: as §1

[38] = target: T34, PAF (Homo sapiens, UniProt P25105); settings: Agonist, Receptor, read-out: % of specific inhibition
T34 construct: purchased Eurofins Discovery (Cerep) BioPrint Profile Panel
T34 sequence (P25105 whole entry): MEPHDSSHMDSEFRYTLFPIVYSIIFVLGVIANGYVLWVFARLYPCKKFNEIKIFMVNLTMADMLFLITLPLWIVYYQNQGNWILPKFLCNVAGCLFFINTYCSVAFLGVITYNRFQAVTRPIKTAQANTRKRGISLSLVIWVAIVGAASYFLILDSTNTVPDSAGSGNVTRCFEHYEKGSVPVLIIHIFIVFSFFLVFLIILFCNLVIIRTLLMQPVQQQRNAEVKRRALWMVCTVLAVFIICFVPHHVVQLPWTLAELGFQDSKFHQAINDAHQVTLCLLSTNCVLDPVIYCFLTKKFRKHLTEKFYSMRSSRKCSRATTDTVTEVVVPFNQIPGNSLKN
Text: as §1

[39] = target: T35, A2A (Homo sapiens, UniProt P29274); settings: Agonist, Receptor
T35 construct: purchased Eurofins Discovery (Cerep) BioPrint Profile Panel
T35 sequence (P29274 whole entry): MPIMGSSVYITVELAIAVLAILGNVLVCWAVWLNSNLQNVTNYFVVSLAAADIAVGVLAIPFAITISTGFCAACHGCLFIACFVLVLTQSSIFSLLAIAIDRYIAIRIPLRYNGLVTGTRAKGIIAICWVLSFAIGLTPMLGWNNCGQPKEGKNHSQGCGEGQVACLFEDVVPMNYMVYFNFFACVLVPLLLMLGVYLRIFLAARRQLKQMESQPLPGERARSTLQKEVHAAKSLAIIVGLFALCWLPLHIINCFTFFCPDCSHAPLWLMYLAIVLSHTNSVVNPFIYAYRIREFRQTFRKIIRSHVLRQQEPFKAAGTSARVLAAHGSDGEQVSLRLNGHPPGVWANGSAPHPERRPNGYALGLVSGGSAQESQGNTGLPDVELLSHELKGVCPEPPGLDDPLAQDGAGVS
Text: as §1

[40] = target: T36, A2B (Homo sapiens, UniProt P29275); settings: Antagonist, Receptor
T36 construct: purchased Eurofins Discovery (Cerep) BioPrint Profile Panel
T36 sequence (P29275 whole entry): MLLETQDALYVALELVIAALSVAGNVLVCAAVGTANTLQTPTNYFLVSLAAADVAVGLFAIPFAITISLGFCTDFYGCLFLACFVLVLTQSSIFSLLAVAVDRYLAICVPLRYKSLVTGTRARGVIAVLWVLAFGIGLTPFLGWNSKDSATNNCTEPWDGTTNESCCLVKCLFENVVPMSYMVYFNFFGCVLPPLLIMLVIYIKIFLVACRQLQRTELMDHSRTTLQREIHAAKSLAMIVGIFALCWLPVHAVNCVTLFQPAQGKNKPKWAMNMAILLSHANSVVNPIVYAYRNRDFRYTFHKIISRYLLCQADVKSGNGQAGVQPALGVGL
Text: as §1

[41] = target: T37, N neuronal α4β2 (Homo sapiens, UniProt P17787+P43681); settings: Agonist, Receptor, read-out: % of specific inhibition
T37 construct: purchased Eurofins Discovery (Cerep) BioPrint Profile Panel
Text: as §1

[42] = target: T38, D2S (Homo sapiens, UniProt P14416); settings: Agonist, Receptor, read-out: % of specific inhibition
T38 construct: purchased Eurofins Discovery (Cerep) BioPrint Profile Panel
Text: as §1

[43] = target: T39, GABAB(1b) (Homo sapiens, UniProt Q9UBS5); settings: Antagonist, Receptor, read-out: % of specific inhibition
T39 construct: purchased Eurofins Discovery (Cerep) BioPrint Profile Panel
Text: as §1

[44] = read-out: % Inhibition of Control Specific Binding

SMILES: O=c1cc(-c2ccccc2)oc2c(O)c(O)ccc12 [7,8-DHF, 7,8-dihydroxyflavone]
- inhibition at 10 µM [1]: -16%
- inhibition at 10 µM [2]: 2%
- inhibition at 10 µM [3]: -5%
- inhibition at 10 µM [4]: -4%
- inhibition at 10 µM [5]: 4%
- inhibition at 10 µM [6]: -8%
- inhibition at 10 µM [7]: 35%
- inhibition at 10 µM [8]: 7%
- inhibition at 10 µM [9]: -5%
- inhibition at 10 µM [10]: 4%
- inhibition at 10 µM [11]: -26%
- % of specific inhibition [12]: -1%
- inhibition at 10 µM [13]: 20%
- inhibition at 10 µM [14]: 2%
- inhibition at 10 µM [15]: -2%
- % of specific inhibition [16]: 7%
- inhibition at 10 µM [17]: -4%
- inhibition at 10 µM [18]: -4%
- inhibition at 10 µM [19]: 2%
- % of specific inhibition [20]: 3%
- % Inhibition of Control Specific Binding ([21]; 10 μM): 50.2%
- inhibition at 10 µM [21, 44]: 50%
- inhibition at 10 µM [22]: -26%
- % of specific inhibition [23]: 26%
- inhibition at 10 µM [24]: -10%
- inhibition at 10 µM [25]: -2%
- inhibition at 10 µM [26]: -5%
- inhibition at 10 µM [27]: 17%
- inhibition at 10 µM [28]: -4%
- inhibition at 10 µM [29]: -1%
- inhibition at 10 µM [30]: -5%
- inhibition at 10 µM [31]: -37%
- inhibition at 10 µM [32]: -2%
- inhibition at 10 µM [33]: -5%
- inhibition at 10 µM [34]: -12%
- inhibition at 10 µM [35]: -2%
- inhibition at 10 µM [36]: 1%
- inhibition at 10 µM [37]: 21%
- inhibition at 10 µM [38]: -20%
- % Inhibition of Control Specific Binding ([39]; 10 μM): 74.9%
- inhibition at 10 µM [39, 44]: 75%
- % Inhibition of Control Specific Binding ([40]; 10 μM): 78.3%
- inhibition at 10 µM [40, 44]: 78%
- inhibition at 10 µM [41]: 5%
- inhibition at 10 µM [42]: -15%
- inhibition at 10 µM [43]: -5%
